What all share (format): functional
Test [1] relates to Staphylococcus aureus. The experiment in a line: Antibacterial activity against Staphylococcus aureus ATCC 25923 by two-fold serial dilution method.
The subject of test [2] is Staphylococcus aureus. The test can be described thus: Antibacterial activity against methicillin-resistant Staphylococcus aureus ATCC 43300 by two-fold serial dilution method.
The subject of test [3] is Staphylococcus aureus. The test can be described thus: Antibacterial activity against clinical isolate methicillin-resistant Staphylococcus aureus by two-fold serial dilution method.

Each structure is given as a SMILES string. Converted amounts (≈) assume the structure as drawn.

As to `CC1(C)S[C@@H]2[C@H](NC(=O)[C@@H](N)c3ccccc3)C(=O)N2[C@H]1C(=O)OCOC(=O)[C@@H]1N2C(=O)C[C@H]2S(=O)(=O)C1(C)C`, the MIC with Staphylococcus aureus [1] stood at 0.78 mg/L (≈ 1.31 µM); against Staphylococcus aureus [2], 25 mg/L (≈ 42 µM); in the test on Staphylococcus aureus [3], 25 mg/L (≈ 42 µM).

For the compound `c1ccc2c([C@@H]3CC[C@@H](c4c[nH]c5ccccc45)c4c3[nH]c3ccccc43)c[nH]c2c1` (relative stereo), the minimum inhibitory concentration (MIC) against Staphylococcus aureus [1] was found to be 3.12 mg/L (≈ 7.78 µM); in the test on Staphylococcus aureus [2], 3.12 mg/L (≈ 7.78 µM); with Staphylococcus aureus [3], 6.25 mg/L (≈ 15.6 µM).

As to `c1ccc2c([C@@H]3CCC[C@@H](c4c[nH]c5ccccc45)c4c3[nH]c3ccccc43)c[nH]c2c1` (relative stereo), the figures for the MIC in the test with Staphylococcus aureus [1], with Staphylococcus aureus [2] and in the test with Staphylococcus aureus [3] were 3.12 mg/L (≈ 7.52 µM), 6.25 mg/L (≈ 15 µM) and 12.5 mg/L (≈ 30.1 µM), respectively.

Take `Clc1ccc2c([C@@H]3CC[C@@H](c4c[nH]c5cc(Cl)ccc45)c4c3[nH]c3cc(Cl)ccc43)c[nH]c2c1` (relative stereo): the minimum inhibitory concentration (MIC) in the test on Staphylococcus aureus [1], against Staphylococcus aureus [2] and against Staphylococcus aureus [3] was 12.5 mg/L (≈ 24.8 µM) throughout.

For `CC(=O)n1cc([C@H]2CCC[C@@H](c3c[nH]c4ccccc34)c3[nH]c4ccccc4c32)c2ccccc21` (relative stereo), the MIC with Staphylococcus aureus [1] was 25 mg/L (≈ 54.6 µM); in the test on Staphylococcus aureus [2], 12.5 mg/L (≈ 27.3 µM); in the test with Staphylococcus aureus [3], 12.5 mg/L (≈ 27.3 µM).

Consider `Clc1ccc2[nH]cc([C@@H]3CC[C@@H](c4c[nH]c5ccc(Cl)cc45)c4c3[nH]c3ccc(Cl)cc43)c2c1` (relative stereo), for which the MIC against Staphylococcus aureus [1] was 3.12 mg/L (≈ 6.19 µM); in the test with Staphylococcus aureus [2], 6.25 mg/L (≈ 12.4 µM); against Staphylococcus aureus [3], 12.5 mg/L (≈ 24.8 µM).

`CC(=O)n1cc([C@H]2CC[C@@H](c3cn(C(C)=O)c4ccccc34)c3c2c2ccccc2n3C(C)=O)c2ccccc21` (relative stereo): the MIC in the test on Staphylococcus aureus [1], in the test on Staphylococcus aureus [2] and with Staphylococcus aureus [3] was 50 mg/L (≈ 94.8 µM) throughout.

Consider `Clc1ccc2[nH]cc([C@@H]3CCC[C@@H](c4c[nH]c5ccc(Cl)cc45)c4c3[nH]c3ccc(Cl)cc43)c2c1` (relative stereo), for which the MIC was determined as 3.12 mg/L (≈ 6.02 µM) with Staphylococcus aureus [1], 6.25 mg/L (≈ 12 µM) in the test on Staphylococcus aureus [2] and 6.25 mg/L (≈ 12 µM) in the test on Staphylococcus aureus [3].

For `Clc1ccc2c([C@@H]3CCC[C@@H](c4c[nH]c5cc(Cl)ccc45)c4c3[nH]c3cc(Cl)ccc43)c[nH]c2c1` (relative stereo), the values for the MIC against Staphylococcus aureus [1], with Staphylococcus aureus [2] and in the test on Staphylococcus aureus [3] were 3.12 mg/L (≈ 6.02 µM), 6.25 mg/L (≈ 12 µM) and 12.5 mg/L (≈ 24.1 µM), respectively.

Turning to `c1ccc2c([C@@H]3CCCC[C@@H](c4c[nH]c5ccccc45)c4c3[nH]c3ccccc43)c[nH]c2c1` (relative stereo), the MIC was determined as 3.12 mg/L (≈ 7.27 µM) against Staphylococcus aureus [1], 6.25 mg/L (≈ 14.5 µM) against Staphylococcus aureus [2] and 12.5 mg/L (≈ 29.1 µM) in the test on Staphylococcus aureus [3].

In the case of `c1ccc2c([C@@H]3C[C@@H](c4c[nH]c5ccccc45)c4c3[nH]c3ccccc43)c[nH]c2c1` (relative stereo), the MIC turned out to be 50 mg/L (≈ 129 µM) in the test on Staphylococcus aureus [1], 12.5 mg/L (≈ 32.3 µM) against Staphylococcus aureus [2] and 12.5 mg/L (≈ 32.3 µM) against Staphylococcus aureus [3].

Regarding `BrC1[C@@H](c2c[nH]c3ccccc23)c2[nH]c3ccccc3c2[C@@H]1c1c[nH]c2ccccc12` (relative stereo), the values for the MIC in the test on Staphylococcus aureus [1], with Staphylococcus aureus [2] and against Staphylococcus aureus [3] were 3.12 mg/L (≈ 6.7 µM), 3.12 mg/L (≈ 6.7 µM) and 6.25 mg/L (≈ 13.4 µM), respectively.

As for `CC(=O)n1cc([C@@H]2CC[C@H](c3cn(C(C)=O)c4ccccc34)c3c2[nH]c2ccccc32)c2ccccc21` (relative stereo), the MIC against Staphylococcus aureus [1], with Staphylococcus aureus [2] and in the test on Staphylococcus aureus [3] was 100 mg/L (≈ 206 µM) each time.

For the compound `CC(=O)n1cc([C@H]2CCC[C@@H](c3cn(C(=O)O)c4ccccc34)c3[nH]c4ccccc4c32)c2ccccc21` (relative stereo), the MIC with Staphylococcus aureus [1] came out at 100 mg/L (≈ 199 µM); with Staphylococcus aureus [2] it was 50 mg/L (≈ 99.7 µM); against Staphylococcus aureus [3], 50 mg/L (≈ 99.7 µM).

Regarding `ClC1[C@@H](c2c[nH]c3ccccc23)c2[nH]c3ccccc3c2[C@@H]1c1c[nH]c2ccccc12` (relative stereo), the MIC came out at 3.12 mg/L (≈ 7.41 µM) against Staphylococcus aureus [1], 3.12 mg/L (≈ 7.41 µM) against Staphylococcus aureus [2] and 6.25 mg/L (≈ 14.8 µM) in the test with Staphylococcus aureus [3].

Turning to `CC1(C)S[C@@H]2[C@H](NC(=O)[C@H](N)c3ccccc3)C(=O)N2[C@H]1C(=O)O` [AMPICILLIN], the minimum inhibitory concentration (MIC) with Staphylococcus aureus [1] was 1.56 mg/L (≈ 4.46 µM); against Staphylococcus aureus [2] it was 50 mg/L (≈ 143 µM); against Staphylococcus aureus [3], 50 mg/L (≈ 143 µM).

The MIC is the smallest concentration in the dilution series that meets the test's criterion for growth inhibition. Lower therefore signals greater potency.
